From PubChem BioAssay AID1919009 (Molecular Pharmacology Branch, DTP, NCI, 2023)

Test system: K24384-001-R-PDC complex spheroid growth
Assay: Anticancer human tumor K24384-001-R-PDC patient-derived pancreatic adenocarcinoma cell line growth inhibition [AhR]
Settings: for IC50: curve of first compound; for viability, T/C: stronger effect = lower value
Source text: Multicellular complex tumor spheroid response to aryl hydrocarbon receptor antagonists in combination with a variety of drugs and investigational agents in selected tumor cell lines
The current study was undertaken to assess response to aryl hydrocarbon receptor antagonists in combination with standard-of-care drugs and investigational agents in solid tumor complex spheroid models. Complex spheroids include a stromal component modeled by human endothelial cells (HUVEC) and fibroblasts modeled by human mesenchymal stem cells (MSCs). The concentration ranges selected for each drug and investigational agent were based upon clinically achievable concentrations if the clinical Cmax of the agent was known.
Compounds. The drugs and investigational agents: BAY 2416964 (NSC825713), GNF351 (NSC835774), CH-223191 (NSC835775), CPI-455 (NSC825282), aza-TdCyd (NSC777586), decitabine (NSC127716), belinostat (NSC758774), entinostat (NSC756642), pevonedistat (NSC761192), tazemetostat (NSC777109), talazoparib (NSC765396), olaparib (NSC753686), selinexor (NSC780203), nedisertib (M3814, NSC802822), bortezomib (NSC756655), venetoclax (NSC766270), doxorubicin (NSC123127), elimusertib (BAY189344, NSC800525), ceralasertib (AZD6738, NSC777638), TAK-243 (NSC785004), alisertib (NSC759677), etoposide (NSC141540), topotecan (NSC609699), eribulin (NSC707389), gemcitabine (NSC613327), carboplatin (NSC241240), cisplatin (NSC119875), and SN-38 (NSC673596) were obtained from the National Cancer Institute (NCI) Developmental Therapeutics Program Chemical Repository (32). The FDA-approved anticancer drug set is available from the Developmental Therapeutics Program at https://dtp.cancer.gov/organization/dscb/obtaining/available plates.htm. […] The stock solutions were prepared in dimethyl sulfoxide (DMSO, Sigma-Aldrich, St. Louis, MO, cat. D2650), except for the platinum compounds which were prepared in saline (Quality Biological, Gaithersburg, MD, cat. 114-055-101), at 800-fold the tested concentration and stored at -70 degrees C prior to their use. All drugs and investigational agents were tested over a range starting from a high concentration at or near the clinical Cmax and decreasing in half-log increments. If the clinical Cmax for an agent had not been determined, the highest concentration tested was 10 microM (Table 1).
Cell Culture. All cells were maintained in an incubator at 37 degrees C and 5% CO2 with 95% humidity. The PDC lines were cultured according to standard operating procedures established by the NCI PDMR (https://pdmr.cancer.gov). Briefly, all PDCs were thawed and cultured in Matrigel-coated flasks prepared with a working solution of 1X Ham's F-12 nutrient mix, without supplementation (Invitrogen, Waltham, MA, cat. 11765054), 100 U/mL penicillin-streptomycin (Invitrogen, cat. 15140122), and 2.5% Matrigel (Corning Inc., Corning, NY, cat. 354248) for the first three passages. All PDCs were cultured in complete DMEM/F-12 media containing advanced DMEM/F-12 (Invitrogen, cat. 12634028), 4.9% defined fetal bovine serum, heat inactivated (HyClone Laboratories Inc., Logan, UT, cat. SH30070.03HI), 389 ng/mL hydrocortisone (Sigma-Aldrich, cat. H4001), 9.7 ng/mL human EGF recombinant protein (Invitrogen, cat. PHG0313), 23.4 microg/mL adenine (Sigma-Aldrich, cat. A2786), 97.3 U/mL penicillin-streptomycin (Invitrogen, cat. 15140122), 1.9 mM L-glutamine (Invitrogen, cat. 25030081), and 9.7 microM Y-27632 dihydrochloride (Tocris Bioscience, Bristol, United Kingdom, cat. 1254). The PDCs were cultured in complete DMEM/F12 media without 10 microM Y-27632 dihydrochloride for at least two passages prior to the screen. The established cell lines NCI-H1341 and […] were cultured in DMEM/F-12, HEPES (Invitrogen, cat. 11330032), 5% defined fetal bovine serum (HyClone Laboratories Inc., cat. SH30070.03), ITS premix universal culture supplement [insulin (5 microg/mL), transferrin (5 microg/mL), and selenious acid (5 ng/mL)] […]
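For viability, T/C in this document: percent of DMSO vehicle-treated spheroid viability set as 100%.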

**Q.** With `CCc1c2c(nc3ccc(O)cc13)-c1cc3c(c(=O)n1C2)COC(=O)[C@]3(O)CC` + Cc1ccccc1N=Nc1ccc(NC(=O)c2ccnn2C)c(C)c1 as the molecule, how does the IC50 (second compound 0.1 µM) read?
**A.** Its IC50 is 0.00869 µM.

**Q.** And the IC50 (second compound 0.316 µM)?
**A.** The IC50 was 0.0292 µM.

**Q.** What about the IC50 (second compound 1 µM) of the same molecule?
**A.** The IC50 was 0.00868 µM.

**Q.** What about the IC50 (second compound 3.16 µM) of the same molecule?
**A.** The IC50 was 0.0198 µM.

**Q.** What about the IC50 (second compound 10 µM) of the same molecule?
**A.** Its IC50 is 0.068 µM.

**Q.** And the viability, T/C (second compound 0.1 µM, first compound 0.000949 µM)?
**A.** The viability, T/C was 74.2%.

**Q.** And the viability, T/C (second compound 0.1 µM, first compound 0.003 µM)?
**A.** Its viability, T/C is 72.8%.

**Q.** And the viability, T/C (second compound 0.1 µM, first compound 0.00949 µM)?
**A.** Its viability, T/C is 48.1%.

**Q.** And the viability, T/C (second compound 0.1 µM, first compound 0.03 µM)?
**A.** The viability, T/C was 48.9%.

**Q.** What about the viability, T/C (second compound 0.1 µM, first compound 0.0949 µM) of the same molecule?
**A.** Its viability, T/C is 49.8%.

**Q.** What about the viability, T/C (second compound 0.1 µM, first compound 0.3 µM) of the same molecule?
**A.** The viability, T/C was 36.7%.

**Q.** And the viability, T/C (second compound 0.316 µM, first compound 0.000949 µM)?
**A.** Its viability, T/C is 96.2%.

**Q.** And the viability, T/C (second compound 0.316 µM, first compound 0.003 µM)?
**A.** The viability, T/C was 77.7%.

**Q.** What about the viability, T/C (second compound 0.316 µM, first compound 0.00949 µM) of the same molecule?
**A.** Its viability, T/C is 58.1%.

**Q.** What about the viability, T/C (second compound 0.316 µM, first compound 0.03 µM) of the same molecule?
**A.** Its viability, T/C is 51.6%.

**Q.** And the viability, T/C (second compound 0.316 µM, first compound 0.0949 µM)?
**A.** Its viability, T/C is 41.9%.

**Q.** What about the viability, T/C (second compound 0.316 µM, first compound 0.3 µM) of the same molecule?
**A.** Its viability, T/C is 31.4%.

**Q.** What about the viability, T/C (second compound 1 µM, first compound 0.000949 µM) of the same molecule?
**A.** Its viability, T/C is 77.4%.

**Q.** And the viability, T/C (second compound 1 µM, first compound 0.003 µM)?
**A.** The viability, T/C was 100%.

**Q.** What about the viability, T/C (second compound 1 µM, first compound 0.00949 µM) of the same molecule?
**A.** Its viability, T/C is 46.7%.

**Q.** And the viability, T/C (second compound 1 µM, first compound 0.03 µM)?
**A.** The viability, T/C was 45.2%.

**Q.** What about the viability, T/C (second compound 1 µM, first compound 0.0949 µM) of the same molecule?
**A.** The viability, T/C was 47.6%.

**Q.** What about the viability, T/C (second compound 1 µM, first compound 0.3 µM) of the same molecule?
**A.** Its viability, T/C is 30.8%.

**Q.** What about the viability, T/C (second compound 3.16 µM, first compound 0.000949 µM) of the same molecule?
**A.** The viability, T/C was 73.3%.

**Q.** What about the viability, T/C (second compound 3.16 µM, first compound 0.003 µM) of the same molecule?
**A.** The viability, T/C was 62%.

**Q.** What about the viability, T/C (second compound 3.16 µM, first compound 0.00949 µM) of the same molecule?
**A.** Its viability, T/C is 55.6%.

**Q.** And the viability, T/C (second compound 3.16 µM, first compound 0.03 µM)?
**A.** Its viability, T/C is 46.1%.

**Q.** And the viability, T/C (second compound 3.16 µM, first compound 0.0949 µM)?
**A.** Its viability, T/C is 41.5%.

**Q.** What about the viability, T/C (second compound 3.16 µM, first compound 0.3 µM) of the same molecule?
**A.** Its viability, T/C is 30%.

**Q.** What about the viability, T/C (second compound 10 µM, first compound 0.000949 µM) of the same molecule?
**A.** Its viability, T/C is 94%.

**Q.** And the viability, T/C (second compound 10 µM, first compound 0.003 µM)?
**A.** Its viability, T/C is 82%.

**Q.** And the viability, T/C (second compound 10 µM, first compound 0.00949 µM)?
**A.** Its viability, T/C is 64.3%.

**Q.** What about the viability, T/C (second compound 10 µM, first compound 0.03 µM) of the same molecule?
**A.** The viability, T/C was 65.7%.

**Q.** And the viability, T/C (second compound 10 µM, first compound 0.0949 µM)?
**A.** The viability, T/C was 48.6%.

**Q.** And the viability, T/C (second compound 10 µM, first compound 0.3 µM)?
**A.** Its viability, T/C is 29.3%.
